In patent US20060148059A1, “Salt tolerant l-myo-inositol 1-phosphate synthase and the process of obtaining the same” (priority 2002, published 2006):
Where two headings read alike, the source gives them in different places.

What was measured:
[1] = system: Oryza sativa L-myo-inositol 1-phosphate synthase (RINO), native; conditions: data from RayChaudhury et al. (1997); cited from earlier work
[2] = pH and temperature optimum of enzyme activity; type: biochemical
Method: The purified bacterially expressed RINO1 and PINO1 proteins were characterized for their biochemical properties (Table-1). […] For both the cases optimum enzyme activity was at 37° C. whereas optimum pH for Porteresia recombinant synthase (PINO1) was 8.0 and the same for Oryza recombinant synthase (RINO1) was 7.5.

[3] = Tryptophan fluorescence in increasing NaCl concentrations; type: physicochemical; conditions: recombinant preparations
Method: FIG. 4: Tryptophan fluorescence of purified RINO1 (A) and PINO1 (B) proteins in increasing NaCl concentrations; tracing 1,2,3 & 4 correspond to 0, 100 mM, […] and 400 mM NaCl in the system.
Tryptophan Fluorescence spectra of the recombinant preparations of the inositol synthase(s) from Oryza sativa (RINO1) and Porteresia coarctata (PINO1) are shown in Panel A and B respectively in FIG. 4. […] The emission maxima in both the cases remain close to 336 nm.

[4] = not told
Method: FIG. 5: Gel filtration pattern on Superose-12 of RINO1 and PINO1 proteins in absence and presence of 400 mM NaCl. (A) RINO1 without NaCl; (B) RINO1 with NaCl; (C) PINO1 without NaCl; (D) PINO1 with NaCl. Insets depict SDS-PAGE and immuno dot blots of indicated fractions.

[5] = enzyme activity; data from RayChaudhury et al. (1997); cited from earlier work
[6] = Inositol synthase activity in presence of increasing NaCl concentration; type: biochemical; conditions: NaCl in vitro
From the text: With respect to salt-sensitivity, RINO1 and PINO1 proteins differ a great deal.
FIG. 3: Inositol synthase activity in presence of increasing NaCl concentration for purified native (A) and recombinant (B) enzymes.

Compound | Km [1] [µM] | Vmax [1] [μmol^−m] | Temperature Optimum [2] [°C] | pH optimum [2] | Gel-permeation elution pattern on addition of salt [4] | salt-sensitivity of inositol synthase activity [6] | further results
O=P(O)(O)OC[C@H]1OC(O)[C@H](O)[C@@H](O)[C@@H]1O (stereo partly shown) [G6P, Glucose 6 phosphate] | 1970 | 0.07 | – | – | – | – | –
NC(=O)c1ccc[n+]([C@@H]2O[C@H](COP(=O)([O-])OP(=O)(O)OC[C@H]3O[C@@H](n4cnc5c(N)ncnc54)[C@H](O)[C@@H]3O)[C@@H](O)[C@H]2O)c1 [NAD] | 140 | 0.09 | – | – | – | – | –
L-myo-inositol 1-phosphate synthase [PINO Native] | – | – | 35 | 7.5 | – | – | –
L-myo-inositol 1-phosphate synthase [PINO Recombinant] | – | – | 37 | 8.0 | elutes at the same place | – | Tryptophan fluorescence intensity in presence of added salt ([3]; listed as PINO1): rather insensitive; Temperature Optimum ([2]; listed as PINO1): 37 °C; pH optimum ([2]; listed as PINO1): 8.0
L-myo-inositol 1-phosphate synthase [RINO Native] | – | – | – | – | – | sensitive to NaCl | Temperature Optimum [5]: 35 °C; pH optimum [5]: 8.2
L-myo-inositol 1-phosphate synthase [RINO Recombinant] | – | – | 37 | 7.5 | substantial reduction in the original peak and concurrent appearance of a high molecular weight fraction | sensitive to NaCl | Tryptophan fluorescence intensity in presence of added salt ([3]; listed as RINO1): quenched significantly; Temperature Optimum ([2]; listed as RINO1): 37 °C; pH optimum ([2]; listed as RINO1): 7.5
